Experimental data published in ChEMBL document CHEMBL6071184, “Lasamide, a Potent Human Carbonic Anhydrase Inhibitor from the Market: Inhibition Profiling and Crystallographic Studies” (ACS Med Chem Lett, 2024).
pKi: −log10 of the molar value.

Legend:
Carbonic anhydrase 3 = Carbonic anhydrase 3 (Homo sapiens, UniProt P07451)
Description: Inhibition of full-length recombinant human CA III-catalysed CO2 hydration by stopped-flow technique

Carbonic anhydrase 4 = Carbonic anhydrase 4 (Homo sapiens, UniProt P22748); test: Inhibition of full-length recombinant human CA IV-catalysed CO2 hydration by stopped-flow technique
Carbonic anhydrase 4, sequence (P22748 whole entry): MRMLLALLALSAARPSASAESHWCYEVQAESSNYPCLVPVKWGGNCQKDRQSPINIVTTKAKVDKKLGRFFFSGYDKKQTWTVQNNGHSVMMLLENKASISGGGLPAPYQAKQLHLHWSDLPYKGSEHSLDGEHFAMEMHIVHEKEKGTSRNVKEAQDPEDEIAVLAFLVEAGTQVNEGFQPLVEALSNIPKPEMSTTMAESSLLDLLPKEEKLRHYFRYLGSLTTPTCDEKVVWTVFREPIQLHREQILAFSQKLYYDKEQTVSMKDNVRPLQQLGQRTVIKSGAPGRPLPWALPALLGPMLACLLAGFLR

Carbonic anhydrase 14 = Carbonic anhydrase 14 (Homo sapiens, UniProt Q9ULX7); test: Inhibition of full-length recombinant human CA XIV-catalysed CO2 hydration by stopped-flow technique
Carbonic anhydrase 14, sequence (Q9ULX7 whole entry): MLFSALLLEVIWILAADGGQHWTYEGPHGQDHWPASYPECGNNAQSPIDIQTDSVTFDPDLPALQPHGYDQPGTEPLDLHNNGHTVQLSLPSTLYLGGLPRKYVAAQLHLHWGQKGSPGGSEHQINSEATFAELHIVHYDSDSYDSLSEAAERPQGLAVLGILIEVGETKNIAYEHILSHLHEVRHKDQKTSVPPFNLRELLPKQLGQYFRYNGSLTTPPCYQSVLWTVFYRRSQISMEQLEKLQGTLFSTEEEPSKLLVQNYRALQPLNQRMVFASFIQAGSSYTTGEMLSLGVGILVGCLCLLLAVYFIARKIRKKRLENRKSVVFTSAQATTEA

Carbonic anhydrase 6 [1] = molecular target: T1, Carbonic anhydrase 6 (Homo sapiens, UniProt P23280)
T1 sequence (P23280 whole entry): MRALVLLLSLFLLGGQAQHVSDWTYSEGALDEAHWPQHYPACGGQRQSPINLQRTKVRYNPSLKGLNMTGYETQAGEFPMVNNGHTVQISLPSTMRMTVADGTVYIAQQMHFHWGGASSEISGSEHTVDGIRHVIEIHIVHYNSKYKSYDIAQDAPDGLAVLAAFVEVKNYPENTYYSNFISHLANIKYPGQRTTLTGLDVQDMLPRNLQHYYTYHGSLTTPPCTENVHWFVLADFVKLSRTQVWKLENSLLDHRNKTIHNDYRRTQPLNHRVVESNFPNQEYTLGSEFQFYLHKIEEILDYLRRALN
Description: Inhibition of full-length recombinant human saliva CA VI-catalysed CO2 hydration by stopped-flow technique

Carbonic anhydrase 13 = Carbonic anhydrase 13 (Mus musculus, UniProt Q9D6N1); test: Inhibition of mouse CA XIII-catalysed CO2 hydration by stopped-flow technique
Carbonic anhydrase 13, sequence (Q9D6N1 whole entry): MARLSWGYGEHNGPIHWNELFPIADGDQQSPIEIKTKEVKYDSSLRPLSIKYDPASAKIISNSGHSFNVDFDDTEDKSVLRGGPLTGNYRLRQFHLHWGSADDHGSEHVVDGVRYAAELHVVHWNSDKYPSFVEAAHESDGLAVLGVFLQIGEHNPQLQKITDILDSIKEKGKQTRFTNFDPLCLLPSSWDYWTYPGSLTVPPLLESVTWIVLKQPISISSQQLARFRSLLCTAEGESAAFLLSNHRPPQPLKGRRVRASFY

Carbonic anhydrase 7 = Carbonic anhydrase 7 (Homo sapiens, UniProt P43166)
Carbonic anhydrase 7, sequence (P43166 whole entry): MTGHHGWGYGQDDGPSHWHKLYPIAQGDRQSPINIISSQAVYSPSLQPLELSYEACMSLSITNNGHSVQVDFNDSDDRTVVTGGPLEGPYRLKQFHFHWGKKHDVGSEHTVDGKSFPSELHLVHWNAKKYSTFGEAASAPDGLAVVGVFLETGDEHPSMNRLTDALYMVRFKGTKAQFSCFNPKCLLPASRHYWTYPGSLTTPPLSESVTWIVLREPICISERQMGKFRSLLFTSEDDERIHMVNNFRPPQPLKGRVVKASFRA
Description: Inhibition of full-length recombinant human CA VII-catalysed CO2 hydration by stopped-flow technique

[2] = molecular target: Carbonic anhydrase 5B, mitochondrial (Homo sapiens, UniProt Q9Y2D0); test: Inhibition of full-length recombinant human CA VB-catalysed CO2 hydration by stopped-flow technique
Carbonic anhydrase 5B, mitochondrial, sequence (Q9Y2D0 whole entry): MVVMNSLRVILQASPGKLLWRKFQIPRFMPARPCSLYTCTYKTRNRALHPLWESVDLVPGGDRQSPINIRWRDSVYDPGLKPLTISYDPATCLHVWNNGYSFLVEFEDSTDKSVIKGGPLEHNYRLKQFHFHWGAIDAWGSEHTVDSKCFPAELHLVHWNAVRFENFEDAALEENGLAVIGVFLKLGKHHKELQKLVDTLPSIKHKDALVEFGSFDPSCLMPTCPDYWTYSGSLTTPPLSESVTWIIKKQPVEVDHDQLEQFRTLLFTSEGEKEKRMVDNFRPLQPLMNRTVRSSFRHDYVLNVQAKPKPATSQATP

[3] = molecular target: Carbonic anhydrase 5A, mitochondrial (Homo sapiens, UniProt P35218)
Carbonic anhydrase 5A, mitochondrial, sequence (P35218 whole entry): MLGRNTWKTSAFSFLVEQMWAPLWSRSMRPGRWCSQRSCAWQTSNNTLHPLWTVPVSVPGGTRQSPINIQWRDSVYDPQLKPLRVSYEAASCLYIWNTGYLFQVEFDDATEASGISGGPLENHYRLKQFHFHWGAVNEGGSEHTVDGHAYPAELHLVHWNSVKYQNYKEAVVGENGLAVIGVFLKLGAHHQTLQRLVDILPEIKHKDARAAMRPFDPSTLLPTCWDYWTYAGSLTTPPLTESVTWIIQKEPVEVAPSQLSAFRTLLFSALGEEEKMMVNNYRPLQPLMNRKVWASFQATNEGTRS
Description: Inhibition of full-length recombinant human CA VA-catalysed CO2 hydration by stopped-flow technique

Carbonic anhydrase 6 [4] = molecular target: T1, Carbonic anhydrase 6; remark: listed apart in the source
Description: Inhibition of full-length recombinant human milk CA VI-catalysed CO2 hydration by stopped-flow technique

Carbonic anhydrase 3, sequence (P07451 whole entry): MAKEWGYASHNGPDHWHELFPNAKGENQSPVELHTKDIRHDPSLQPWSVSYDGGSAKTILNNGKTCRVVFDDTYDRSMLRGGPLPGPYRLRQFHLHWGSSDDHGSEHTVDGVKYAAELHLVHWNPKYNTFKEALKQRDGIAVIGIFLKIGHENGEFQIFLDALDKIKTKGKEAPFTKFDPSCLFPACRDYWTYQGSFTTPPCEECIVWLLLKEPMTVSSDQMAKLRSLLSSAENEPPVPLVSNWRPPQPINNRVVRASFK

NS(=O)(=O)c1cc(C(=O)O)c(Cl)cc1Cl
pKi (Carbonic anhydrase 3): < 4.30 | pKi (Carbonic anhydrase 4): 8.72 | pKi (Carbonic anhydrase 14): 7.92 | pKi (Carbonic anhydrase 6 [1]): 7.93 | pKi (Carbonic anhydrase 13): 8.03 | pKi (Carbonic anhydrase 7): 8.18 | pKi [2]: 7.85 | pKi [3]: 8.46 | pKi (Carbonic anhydrase 6 [4]): 8.07
